Test results from US5684003A, “5-HT4 receptor agonists” (Nisshin Flour Milling Co., Ltd., priority 1994, dated 1997).
Read-outs that look alike come from different tables or passages of the source.

Legend:
5-HT4 receptor = 5-HT4 receptor (Cavia porcellus, UniProt O70528); test: Increase in contraction height of electrically stimulated longitudinal muscle of isolated guinea pig ileum (LMMP); assay type: cell-based; set-up: key: +: indicates the increase in the contraction height; -: indicates no effect; conditions: test concentration 10^-7 M
Chain of 5-HT4 receptor (O70528 whole entry): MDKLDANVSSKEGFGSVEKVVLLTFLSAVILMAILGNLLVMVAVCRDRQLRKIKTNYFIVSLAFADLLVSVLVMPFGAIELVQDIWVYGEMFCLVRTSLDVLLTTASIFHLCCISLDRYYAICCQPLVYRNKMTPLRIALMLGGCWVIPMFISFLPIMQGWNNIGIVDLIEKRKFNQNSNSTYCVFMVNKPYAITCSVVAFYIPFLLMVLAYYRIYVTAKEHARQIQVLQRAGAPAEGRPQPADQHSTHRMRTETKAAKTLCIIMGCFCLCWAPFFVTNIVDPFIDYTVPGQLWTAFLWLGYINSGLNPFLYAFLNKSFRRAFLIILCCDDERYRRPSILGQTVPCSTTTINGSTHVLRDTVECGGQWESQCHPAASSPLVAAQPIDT
Description: Ileum was excised from guinea pigs to prepare longitudinal muscle samples with approximately 2 cm length. The sample was suspended in Krebs-Henseleit liquid bath supplied with a mixed gas (95% O2, 5% CO2) and subjected to electrical stimulation (1 msec, 0.1 Hz) to record contraction force isometrically. The test compounds were. dissolved in distilled water or DMSO and tested at a concentration of 10^-7 M (but 10^-6 M for Compound 11). The results are shown by the presence or absence of the increase in the contraction height by electrical stimulation before administration of the compound, wherein the symbol "+" indicates the increase in the contraction height, while "-" indicates no effect.
Whether or not the action of the above compounds is that via activation of 5-HT4 receptors was investigated using as 5-HT4 receptor antagonist, SDZ 205-557 (2-methoxy-4-amino-5-chlorobenzoic acid 2-(diethylamino)ethyl ester) described in Naunyn-Schmiedeberg's Arch Pharmacol (1992) 345:387-393. Thus, the investigation as to whether SDZ 205-557 can antagonize the increase in the contraction height of the above compounds using the longitudinal muscle preparation of the isolated guinea pig ileum can reveal that such increase in the contraction height is the action via activation of 5-HT4 receptors.

gastric motility = test: Gastric motility after meal in beagle dogs (force transducer, Motility Index); assay type: in vivo, dog (beagle); conditions: 60 min after feeding, percentage to MI at 15 minutes before administration
Protocol: The present compounds were investigated for the gastrointestinal motility activity by the following procedure, by which the gastrointestinal prokinetic action was confirmed.
Beagle dogs inserted with a forced transducer at the anterior wall of stomach were used after a convelescence period of more than one month.
Dogs fasted overnight were given a food (375 g of a dog food) and gastric motility after meal was determined. After 60 minutes of the feeding, the test compounds were intravenously injected and the promoting action on gastric motility after meal was determined. The area under contracting wave forms of gastric motility (Motility Index: MI) was calculated and expressed in terms of percentage to the MI at 15 minutes before the administration of the test compound.

5-HT4 receptors = biological target: T1, 5-HT4 receptors (Rattus norvegicus, UniProt Q62758); test: Relaxation of carbachol-contracted rat oesophageal tunica muscularis mucosae; assay type: cell-based
T1 construct: from tissue; host or cells: rat oesophageal tunica muscularis mucosae
T1 sequence (Q62758 whole entry): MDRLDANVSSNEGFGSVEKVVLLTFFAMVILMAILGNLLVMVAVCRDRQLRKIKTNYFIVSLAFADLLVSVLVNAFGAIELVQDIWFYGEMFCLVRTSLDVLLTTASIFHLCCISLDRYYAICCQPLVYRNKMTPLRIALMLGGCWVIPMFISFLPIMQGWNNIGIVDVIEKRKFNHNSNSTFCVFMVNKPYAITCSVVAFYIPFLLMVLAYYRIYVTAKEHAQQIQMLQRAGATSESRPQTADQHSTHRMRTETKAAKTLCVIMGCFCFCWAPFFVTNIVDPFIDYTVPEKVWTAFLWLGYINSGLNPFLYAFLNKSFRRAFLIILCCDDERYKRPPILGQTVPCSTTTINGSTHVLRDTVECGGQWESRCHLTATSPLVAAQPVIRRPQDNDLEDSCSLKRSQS
Protocol: The agonistic activity of oxazabicyclo derivatives and Mosapride on 5-HT4 receptors was determined by the procedure mentioned in Naunyn-Schmiedeberg's Arch Pharmacol (1991) 343:439-446.
The rat oesophageal tunica muscularis mucosae were suspended in organ both containing Krebs-Henseleit solution aerated with a mixed gas (95% O2, 5% CO2) and contracted with carbachol (1×10^-6 M). After the contraction was stabilized, the cumulative administration of the compounds was performed to determine the relaxation of the rat oesophagus pre-contracted with carbachol. The concentration (ED50) to cause 50% relaxation of the carbachol-induced contraction was measured. The result is expressed in terms of -log ED50 and shown in the following table in which higher numerical value indicates higher activity.

[1] = Chromosomal aberration test
gastric-emptying = test: Gastric-emptying promoting action (semi-solid test meal, fasted rats); assay type: in vivo, rat; conditions: relative to distilled water group (C/D×100)
Protocol: The present compounds were evaluated for the gastrointestinal prokinetic action, employing as an index the gastric-emptying promoting action. Fasted rats were orally given the test compound or distilled water. After 60 minutes, 3 ml of a test meal (a semi-solid food) was given into stomach by means of a probe. After 60 minutes, animals were sacrificed and stomach was excised and weighed. After washing out the gastric content, the stomach was again weighed to calculate the gastric content amount. The results were shown in the following table by calculating the gastric emptying rate (C) from the weight of the test meal given (A) and the weight of the test meal retained in the stomach (B), and expressing in terms of the gastric-emptying promoting rate to the gastric-emptying rate of the distilled water-given group(D).
Gastric-emptying rate(C)=(A-B)/A×100
Gastric-emptying promoting rate=C/D×100

Micronucleus test = test: Micronucleus test
Description: (§1) The compound of Example 5 was repeatedly administered orally to rats (male, female) over the period of 2 weeks to perform a toxicological investigation.

5-HT3 receptor = biological target: T2, 5-HT3 receptor (Rattus norvegicus, UniProt P35563); test: 5-HT3 receptor antagonist activity: inhibition of 2-Me-5-HT-induced reduction in heart rate in anesthetized rats; assay type: in vivo; conditions: iv (jugular vein) 5 minutes before 2-Me-5-HT 0.1 mg/kg, read-out: IC50 (the source's name)
T2 construct: from tissue; host or cells: whole anesthetized rat (in vivo); endogenous receptor
T2 sequence (P35563 24-483): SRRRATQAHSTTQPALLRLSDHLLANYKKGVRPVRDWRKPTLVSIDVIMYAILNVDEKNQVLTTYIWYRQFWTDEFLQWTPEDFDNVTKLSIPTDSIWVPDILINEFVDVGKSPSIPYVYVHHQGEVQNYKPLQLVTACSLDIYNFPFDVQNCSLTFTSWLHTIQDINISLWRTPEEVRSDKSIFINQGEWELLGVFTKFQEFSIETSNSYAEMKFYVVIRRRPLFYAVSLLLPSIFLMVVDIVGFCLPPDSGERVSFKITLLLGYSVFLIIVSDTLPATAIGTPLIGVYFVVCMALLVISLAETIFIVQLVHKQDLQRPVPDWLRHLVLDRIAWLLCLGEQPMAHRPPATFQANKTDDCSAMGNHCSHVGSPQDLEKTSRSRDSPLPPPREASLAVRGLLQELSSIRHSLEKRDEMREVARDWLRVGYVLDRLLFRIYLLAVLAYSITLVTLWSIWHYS
Protocol: For the purpose of studying a receptor selectivity of the present compounds, the 5-HT3 receptor antagonist activity was tested in the following manner. Rats were anesthetized with urethane and heart rate was recorded through femoral artery. The 5-HT3 selective agonist, 2-methyl-5-hydroxytryptamine (2-Me-5-HT) was administered at 0.1 mg/kg through carotid arteries and transient reduction in heart rate was recorded. The test. compounds were administered through jugular vein at 5 minutes before the administration of 2-Me-5-HT, inhibitory rate of reduction in heart rate by the administration of 2-Me-5-HT was calculated and IC50 value was calculated from the inhibitory rate.

[2] = Reverse mutation test (Ames test)
[3] = Two-week repeated oral toxicological investigation in rats; assay type: in vivo, rat; conditions: rats (male, female), 2 weeks, dose figure missing ("a dose of mg/kg")
Description: as §1

SMILES	LMMP: presence or absence of the increase in the contraction height by electrical stimulation (5-HT4 receptor)	MI (Motility Index) (gastric motility; 0.03 mg/kg iv) [%]	MI (Motility Index) (gastric motility; 0.1 mg/kg iv) [%]	MI (Motility Index) (gastric motility; 0.3 mg/kg iv) [%]	EC50 (5-HT4 receptors) [µM]	chromosomal aberration test [1]	Gastric-emptying promoting rate (gastric-emptying; 0.03 mg/kg oral)	Gastric-emptying promoting rate (gastric-emptying; 0.1 mg/kg oral)	Gastric-emptying promoting rate (gastric-emptying; 0.3 mg/kg oral)	micronucleus test (Micronucleus test)	ED50 (5-HT3 receptor) [mg/kg]	reverse mutation test (Ames test) [2]	mutagenicity ([2]; overall from Ames, chromosomal aberration and micronucleus tests)	toxicological changes [3]	MI (Motility Index) (gastric motility; 1 mg/kg iv) [%]	EC50 (5-HT4 receptors; ED50 = concentration to cause 50% relaxation of contraction by carbachol (1×10^-6 M), cumulative administration, read-out: Activity (-log ED50) (converted)) [µM]	Gastric-emptying promoting rate (gastric-emptying; 1 mg/kg oral)	Gastric-emptying promoting rate (gastric-emptying; 3 mg/kg oral)
CCCCN1[C@@H]2COC[C@H]1C[C@@H](NC(=O)c1nn(C(C)C)c3ccccc13)C2 [Example 5, N-[endo-9-(n-Butyl)-3-oxa-9-azabicyclo[3.3.1]non-7-yl]-1-isopropyl-indazole-3-carboxamide]	+	145.8	208.2	324.9	1	negative	110.7	124.2	127.5	negative	0.0427	negative	no mutagenicity was observed	no toxicological changes were observed				
CCOc1cc(N)c(Cl)cc1C(=O)NCC1CN(Cc2ccc(F)cc2)CCO1 (stereo not shown) [Mosapride, reference compound]									103.5						151.0	34.7	125.3	128.1
